From PubChem BioAssay (NCI)
Several values for one entry are separate records, joined by “and”; a condition that tells them apart may be missing. Equal values may be shown once.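 Where inhibition never reached the appropriate level, the endpoint shown equals the highest concentration tested. Otherwise, values were interpolated linearly from a five-concentration, 48-hour dose response in 96-well plates. GI50: concentration for 50% inhibition of growth. TGI marks complete inhibition of growth.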

Assays:
Experiment in all cases: NCI anticancer screen, dose series, 48 h
[1] = test system: SK-MEL-2 melanoma
[2] = test system: MOLT-4 leukemia
[3] = test system: OVCAR-4 ovarian
[4] = test system: KM12 colon
[5] = test system: PC-3 prostate
[6] = test system: HCT-15 colon
[7] = test system: MDA-MB-231 breast
[8] = test system: BT-549 breast
[9] = test system: RPMI-8226 leukemia
[10] = test system: M14 melanoma

SMILES	TGI [1]	TGI [2]	TGI [3]	TGI [4]	TGI [5]	TGI [6]	TGI [7]	TGI [8]	TGI [9]	TGI [10]	GI50 [2]	GI50 [4]	GI50 [10]	GI50 [1]	GI50 [3]	GI50 [6]	GI50 [8]	GI50 [9]
COC(=O)c1cc(OCc2cc(OCc3ccc(Br)cc3)cc(OCc3ccc(Br)cc3)c2)cc(OCc2cc(OCc3ccc(Br)cc3)cc(OCc3ccc(Br)cc3)c2)c1	> 100 µM	> 100 µM	> 100 µM	> 100 µM	> 100 µM	> 100 µM	> 100 µM	> 100 µM	> 100 µM	> 100 µM								
[B]C(=O)NC(CC(C)C)C(=O)NC1c2ccsc2C(=O)C1O (centres undefined) (tested in a mixture with another compound)	> 100 µM	> 100 µM	> 100 µM	> 100 µM	> 100 µM	> 100 µM	> 100 µM	> 100 µM	> 100 µM	> 100 µM								
COc1ccc(/C=C2/C(=O)C(c3ccccc3)N(c3ccccc3)C2=O)cc1OC (centres undefined)	> 10 µM	> 10 µM	> 10 µM	> 10 µM	> 10 µM	> 10 µM	> 10 µM	> 10 µM	> 10 µM	> 10 µM								
COc1ccc(/C=C/C(=O)N[C@@H]2C(=O)N3[C@@H]2SC(C)(C)[C@@H]3C(=O)O)cc1OC	> 100 µM	> 100 µM	> 100 µM	> 100 µM	> 100 µM	> 100 µM	> 100 µM	> 100 µM	> 100 µM	> 100 µM								
O=c1oc2ccc([N+](=O)[O-])cc2cc1-c1csc(-c2ccccc2)n1	> 100 µM	> 100 µM	> 100 µM	> 100 µM	> 100 µM	> 100 µM	> 100 µM	> 100 µM	> 100 µM	> 100 µM								
FC(F)(F)c1ccc(N=NN2CCCC2)cc1	> 100 µM	> 100 µM	> 100 µM	65.2 µM	> 100 µM	> 100 µM	> 100 µM	> 100 µM	> 100 µM	> 100 µM								
CNC(=S)c1nnsc1N	> 100 µM	> 100 µM	> 100 µM	> 100 µM	> 100 µM	> 100 µM	> 100 µM	> 100 µM	> 100 µM	> 100 µM								
CCN(CC)CCCNc1c2cc(OC)ccc2nc2cccc([N+](=O)[O-])c12	0.32 µM	0.554 µM	0.0779 µM	0.347 µM	0.224 µM	0.314 µM	0.319 µM	0.49 µM	0.418 µM	0.24 µM								
COc1ccc(C2=Nn3c(C)nnc3S/C2=C\c2ccc(-c3ccc([N+](=O)[O-])cc3)o2)cc1	40.8 µM	18 µM	> 100 µM	40.1 µM	59.5 µM	27.7 µM	> 100 µM	19 µM	15.5 µM	48.2 µM								
COc1ccc(-c2cc(-c3ccncc3)nc(N)c2-c2ccc(F)cc2)cc1	> 100 µM	> 100 µM	> 100 µM	> 100 µM	> 100 µM	> 100 µM	> 100 µM	> 100 µM	> 100 µM	> 100 µM								
COc1ccc(OC/C(N=Cc2cccnc2)=N/NC(=O)c2ccncc2)cc1	> 100 µM	> 100 µM	> 100 µM	> 100 µM	> 100 µM	> 100 µM	> 100 µM	> 100 µM	> 100 µM	> 100 µM								
CC(=O)Oc1ccc(C2SCc3nc4ccccc4n32)cc1 (centres undefined)	80.2 µM	46.4 µM	> 100 µM	81.8 µM	> 100 µM	> 100 µM	> 100 µM	> 53.3 µM	> 100 µM	> 100 µM								
O=C(CCCN1CCC(Nc2ccc(F)cc2)(c2nnnn2C2CCCCC2)CC1)c1ccc(F)cc1	40.7 µM	> 100 µM	25.5 µM	13.3 µM	51.8 µM	42.4 µM	36 µM	33.1 µM	34.4 µM	32.4 µM								
O=[N+]([O-])C(=C(\Cl)NCCO)/C(Cl)=C(/Cl)Br	4.14 µM	2.93 µM	3.01 µM	17.6 µM	7.68 µM	2.78 µM	3.99 µM	4.2 µM	6.14 µM	3.68 µM								
CCOC(=O)CCNC(=O)c1cc(C)cc2c1Oc1c(cc(C)cc1C(=O)NCCC(=O)OCC)S2	> 100 µM	> 100 µM	> 100 µM	> 100 µM	> 100 µM	> 100 µM	> 100 µM	> 100 µM	> 100 µM	> 100 µM								
O=CC1C(=O)Nc2nc3ccccc3n2C1c1ccccc1 (centres undefined)	43.7 µM	5.73 µM	80.3 µM	29.9 µM	42.4 µM	37 µM	44.3 µM	28.4 µM	70.4 µM	34 µM								
COC(=O)/C=C/[C@H]1[C@H](C)N1S(=O)(=O)c1ccc(C)cc1 (some centres undefined)	> 100 µM	> 100 µM	> 100 µM	> 100 µM	> 100 µM	> 100 µM	> 100 µM	> 100 µM	> 100 µM	> 100 µM								
COc1ccc([C@H]2C=C(c3cc(F)c(Cl)cc3Cl)N=c3s/c(=C\c4ccc(-c5ccc(Cl)cc5Cl)o4)c(=O)n32)cc1	48.3 µM	> 100 µM	> 100 µM	> 100 µM	> 100 µM	> 100 µM	70.2 µM	> 100 µM	> 100 µM	> 100 µM								
O=C1CN2CCN(CC2)CC(=O)Nc2ccc(cc2)S(=O)(=O)c2ccc(cc2)NC(=O)CN2CCN(CC2)CC(=O)Nc2ccc(cc2)S(=O)(=O)c2ccc(cc2)N1	> 92.3 µM	> 89 µM	> 100 µM	> 100 µM	> 100 µM	30.7 µM	43.1 µM	> 87.9 µM	> 80.8 µM	> 78.6 µM								
O=C(O)Cc1ccc(-n2nnc3c(=O)[nH][nH]c(=O)c32)cc1	> 100 µM	> 100 µM	> 100 µM	> 100 µM	> 100 µM	> 100 µM	> 100 µM	> 100 µM	> 100 µM	> 100 µM								
CC(C)(C)OC(=O)/C=C/[C@@H](CCC(=O)/C=C/[C@H](/C=C\CCCC(=O)O)NC1(c2ccccc2)c2ccccc2-c2ccccc21)O[Si](C)(C)C(C)(C)C	30.1 µM	> 100 µM	53.9 µM	43.5 µM	36.2 µM	30.2 µM	28.4 µM	33 µM	85.1 µM	29.4 µM								
COc1ccc(-c2c(C#N)c(N)n(C3OC(COC(C)=O)C(OC(C)=O)C(OC(C)=O)C3OC(C)=O)c(=S)c2C#N)cc1 (centres undefined)	> 100 µM and 39.8 µM	> 100 µM and 75.1 µM	> 100 µM and 55.6 µM	> 100 µM	> 100 µM	> 100 µM	> 100 µM and 71.2 µM	89.3 µM and 72 µM	> 100 µM and 68.8 µM	> 100 µM	> 100 µM and 37 µM	> 100 µM and 36.8 µM	> 100 µM and 28.4 µM					
C[C@H](OC(=O)/C=C/c1ccc(O)c(O)c1)[C@H](C)OC(=O)/C=C/c1ccc(O)c(O)c1	50.3 µM	> 100 µM	> 100 µM	> 100 µM	> 100 µM	25.9 µM	35.9 µM	24.1 µM	> 100 µM	23.5 µM								
Cc1nc2ccccc2n1Cc1ccc(NC(=S)NC2CCCCC2)cc1	> 100 µM	> 100 µM	> 100 µM	> 100 µM	> 100 µM	> 100 µM	> 100 µM	> 100 µM	> 66.4 µM	> 100 µM								
O=C(Nc1ccccn1)c1cc2c(cc1Cl)Sc1nccn1S2(=O)=O	48.8 µM	> 100 µM	> 100 µM	> 100 µM	> 100 µM	> 100 µM	53 µM	> 100 µM	> 100 µM	> 100 µM								
COc1ccc(-c2nc3ccccc3c(=O)[nH]2)cc1OC	> 100 µM	> 100 µM	> 100 µM	> 100 µM	> 100 µM	> 100 µM	77 µM	> 100 µM	> 100 µM	> 100 µM								
COc1cc(CNC(=O)CCCCCCCCCCSC#N)ccc1O	28.8 µM	31.1 µM	57.6 µM	19.3 µM	27.5 µM	23 µM	> 100 µM	44.6 µM	59.5 µM	21.5 µM								
O=c1ccc2c(Cl)sc(Cl)c2[nH]1	> 100 µM	> 100 µM	> 100 µM	> 100 µM	> 100 µM	> 100 µM	> 100 µM	> 100 µM	> 100 µM	> 100 µM								
CC(=O)Nc1ccc2cc3c(nc2n1)c1cccnc1n3S(=O)(=O)c1ccccc1	> 100 µM	> 100 µM	> 100 µM	> 100 µM	> 100 µM	> 100 µM	> 100 µM	> 100 µM	> 100 µM	> 100 µM								
COC(=O)/C=C/c1cc(OC)c2c(c1)C(C(=O)OC)C(c1ccc(O)c(OC)c1)O2 (centres undefined)	> 82.2 µM	> 100 µM and 16.7 µM	> 100 µM	> 88.2 µM and 20.9 µM and 15.7 µM	> 100 µM	> 100 µM and > 53.7 µM and 56.6 µM	> 25.8 µM and 18.8 µM and 42.1 µM	> 42.3 µM and 18.9 µM and > 90.5 µM	13.6 µM and > 60.8 µM and 15.6 µM	> 100 µM	5.39 µM and 4.7 µM and 1.94 µM			3.16 µM and 3.87 µM and 9.94 µM	7.9 µM and 7.77 µM and 18 µM	2.74 µM and 1.52 µM and 0.629 µM	4.54 µM and 1.87 µM and 18.2 µM	2.94 µM and 3.93 µM and 1.69 µM
